Consider 10 molecules from US8148370B2, “Polysubstituted derivatives of 2-aryl-6-phenyl-imidazo[1,2-a]pyridines, and preparation and therapeutic use thereof” (Sanofi-Aventis, priority 2008, dated 2012).

pEC50: −log10 of the molar value.

For one series, the target named is T1, mouse Nurr1 receptor (Mus musculus, UniProt Q06219).
T1 construct: endogenously expressing the mouse Nurr1 receptor; host or cells: Neuro-2A (N2A) mouse neuroblastoma cells stably transfected with 8NBRE-luciferase
T1 sequence (Q06219 whole entry): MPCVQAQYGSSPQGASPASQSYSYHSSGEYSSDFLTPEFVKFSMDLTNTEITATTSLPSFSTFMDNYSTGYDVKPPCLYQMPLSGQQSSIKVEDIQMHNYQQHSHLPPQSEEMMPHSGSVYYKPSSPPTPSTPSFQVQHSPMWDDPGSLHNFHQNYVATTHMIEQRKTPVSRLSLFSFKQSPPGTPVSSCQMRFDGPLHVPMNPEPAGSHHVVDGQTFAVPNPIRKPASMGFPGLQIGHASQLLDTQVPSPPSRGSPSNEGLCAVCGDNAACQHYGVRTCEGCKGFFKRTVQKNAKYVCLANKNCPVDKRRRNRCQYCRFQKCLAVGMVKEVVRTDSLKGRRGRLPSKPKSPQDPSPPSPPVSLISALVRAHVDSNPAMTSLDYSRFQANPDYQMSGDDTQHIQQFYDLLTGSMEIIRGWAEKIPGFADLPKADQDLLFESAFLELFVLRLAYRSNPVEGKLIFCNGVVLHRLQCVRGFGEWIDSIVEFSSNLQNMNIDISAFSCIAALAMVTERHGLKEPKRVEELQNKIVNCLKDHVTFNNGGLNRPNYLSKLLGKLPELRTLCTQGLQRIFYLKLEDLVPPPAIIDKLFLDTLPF
The series is described as follows: Evaluation of the in vitro activity on N2A cells (NBRE-luciferase reporter). It is filed as cell-based. The following applies: N2A (Neuro-2A) cells stably transfected with 8NBRE-luciferase; products incubated 24 hours; luminescence. The procedure: The compounds according to the invention have formed the subject of pharmacological assays which make it possible to determine their modulatory effect on NOT. Evaluation of the In Vitro Activity on N2A Cells The activity of the compounds according to the invention was evaluated on a cell line (N2A) endogenously expressing the mouse Nurr1 receptor and stably transfected with the NOT binding response element (NBRE) coupled to the luciferase reporter gene. The EC50 values are between 0.01 and 10 μM. The assays were carried out according to the procedure described below. The Neuro-2A cell line comes from a standard commercial source (ATCC). The Neuro-2A clone was obtained, from a spontaneous tumour originating from an A albino mouse strain, by R. J Klebe et al. This Neuro-2A line is subsequently stably transfected with 8NBRE-luciferase. The N2A-8NBRE cells are cultured until confluence in 75 cm^2 culture flasks containing DMEM supplemented with 10% of foetal calf serum, 4.5 g/l of glucose and 0.4 mg/ml of geneticin. After a week of culture, the cells are recovered with 0.25% trypsin for 30 seconds and then resuspended in DMEM without phenol red, containing 4.5 g/l of glucose and 10% of Hyclone delipidized serum, and deposited into transparent-bottom 96-well white plates. The cells are deposited at a rate of 60 000 per well in 75 μl for 24 hours before the addition of the products. The products are applied in 25 μl and incubated for a further 24 hours. On the day of the measurement, an equivalent volume (100 μl) of Steadylite is added to each well and then left for a period of 30 minutes in order to obtain complete cell lysis and maximum signal production. The plates are subsequently measured in a luminescence counter for microplates after having been sealed with an adhesive film. The products are prepared in the form of a stock solution at 10^−2M and then diluted in 100% of DMSO. Each product concentration is prediluted in culture medium before incubation with the cells, thus containing 0.625% final concentration of DMSO. […] It is thus apparent that the compounds according to the invention have a modulatory effect on NOT.
A general note: Reporter assays use an easily measured gene product as a stand-in for the process of interest.
Turning to `CC(O)c1ccc(F)c(-c2ccc3nc(-c4ccc(Cl)cc4)cn3c2)c1` (single isomer, unassigned; (+)) [Compound 29, (+)-1-{3-[2-(4-Chlorophenyl)imidazo[1,2-a]pyridin-6-yl]-4-fluorophenyl}ethanol], the negative logarithm of the EC50 (pEC50) (as a rule, the EC50 on a negative log10 scale, so that one unit is a factor of ten) is 10.00.

As for `OCc1c(F)ccc(-c2ccc3nc(-c4ccc(Cl)cc4)cn3c2)c1F` [Compound 3, {3-[2-(4-Chlorophenyl)imidazo[1,2-a]pyridin-6-yl]-2,6-difluorophenyl}methanol], the pEC50 is 9.30.

The molecule `OC1CCCc2ccc(-c3ccc4nc(-c5ccc(Cl)cc5)cn4c3)cc21` (centres unmarked) [Compound 8, 7-[2-(4-Chlorophenyl)imidazo[1,2-a]pyridin-6-yl]-1,2,3,4-tetrahydronaphth-1-ol] had a pEC50 of 7.38. This pEC50 is 1.92 log units lower than that of the molecule before.

`OCc1cc(-c2ccc3nc(-c4ccc(Cl)cc4)cn3c2)ccc1F` [Compound 11, {5-[2-(4-Chlorophenyl)imidazo[1,2-a]pyridin-6-yl]-2-fluorophenyl}methanol] showed a pEC50 of 8.12.

Regarding `COc1cccc(-c2cn3cc(-c4ccc(CO)c(F)c4)ccc3n2)c1` [Compound 17, {2-Fluoro-4-[2-(3-methoxyphenyl)imidazo[1,2-a]pyridin-6-yl]phenyl}methanol], the negative logarithm of the EC50 (pEC50) was 7.03.

On to `COc1cccc(-c2cn3cc(-c4cc(C(C)(C)O)ccc4F)ccc3n2)c1` [Compound 33, 2-{4-Fluoro-3-[2-(3-methoxyphenyl)imidazo[1,2-a]pyridin-6-yl]phenyl}propan-2-ol], for which the negative logarithm of the EC50 (pEC50) is 7.60.

`COCc1c(F)ccc(-c2ccc3nc(-c4ccc(C)cc4)cn3c2)c1F` [Compound 37, 6-(2,4-Difluoro-3-methoxymethylphenyl)-2-(p-tolyl)imidazo[1,2-a]pyridine]: the negative logarithm of the EC50 (pEC50) was 7.13. Against the preceding molecule, the pEC50 is 0.47 log units lower.

As for `O=[N+]([O-])c1ccc(-c2cn3cc(-c4cccc(F)c4CO)ccc3n2)cc1` [Compound 38, {2-Fluoro-6-[2-(4-nitrophenyl)imidazo[1,2-a]pyridin-6-yl]phenyl}methanol], the negative-log EC50 (pEC50) is 6.68.

Molecule `OCc1c(F)ccc(-c2ccc3nc(-c4cccc(Br)c4)cn3c2)c1F` [Compound 42, {3-[2-(3-Bromophenyl)imidazo[1,2-a]pyridin-6-yl]-2,6-difluorophenyl}methanol] gave a pEC50 of 9.00. This pEC50 is 2.32 log units higher than that of the molecule before.

Tested on in the next series: not given
Assay: not given
Conditions: not given
`CC(O)c1cccc(-c2ccc3nc(-c4ccc(Cl)cc4)cn3c2)c1F` (centres unmarked) [Compound 2, 1-{3-[2-(4-Chlorophenyl)imidazo[1,2-a]pyridin-6-yl]-2-fluorophenyl}ethanol]: the melting point (in general, the temperature, or range, at which the solid turns liquid) is 193 to 195 °C.

`OCc1c(F)ccc(-c2ccc3nc(-c4ccc(Cl)cc4)cn3c2)c1F` [Compound 3, {3-[2-(4-Chlorophenyl)imidazo[1,2-a]pyridin-6-yl]-2,6-difluorophenyl}methanol] gave a melting point of 214 to 216 °C.
